Test results reported in patent US20260053847A1, “HYDROGEN-GAS-CONTAINING DRUG FOR CAUSAL TREATMENT OF ALZHEIMER'S DISEASE (DISEASE-MODIFYING DRUG)” (H2 GLOBAL GROUP S.R.O., priority 2022, published 2026).
Read-outs that look alike come from different tables or passages of the source.

What was measured:
[1] = system: test subjects with the alipoprotein E4 (APOE4) genotype exhibiting mild cognitive impairment (MCI); conditions: APOE4 genotype subgroup of randomized clinical trials; Patent Document 1; cited from earlier work
[2] = system: patient with a severe form of Alzheimer's disease with incontinence of stool and urine; conditions: one patient
Experimental: (§1) A patient with a severe form of Alzheimer's disease with incontinence of stool and urine was given an inhaled gas mixture containing 3% (v/v) hydrogen gas and 21% (v/v) oxygen gas 2× daily for one hour.
In more detail, the patient was a person who was diagnosed with typical Alzheimer's disease in 2011 and was administered Alzheimer's drugs such as Donepezil, Galantamine, Lithium, etc. The condition was progressively worsening, the ADAS-cog score was 48/70, it was a severe form of Alzheimer's disease.
The patient was unable to recall their date of birth at that time, but was able to walk to the toilet to urinate or defecate on their own. Due to the rapid deterioration of their condition, other treatments were not possible, so hydrogen gas inhalation was started as an adjunctive/complementary therapy on Apr. 19, 2019.

[3] = system: patients with Alzheimer's disease; conditions: for changes in ADAS-cog scores versus control group not inhaling hydrogen gas: FIG. 2
Experimental: The ADAS-cog assesses and scores word list equipment, speaking ability, verbal comprehension, speech difficulties in spontaneous speech, completion of commands, object and finger naming, constructional tasks, ideomotor skills, orientation, word recognition, and ability to reproduce test instructions. The range of scores is from 0 to 70, the higher the score, the greater the cognitive impairment (normal→several).
(§2) A mixture of hydrogen gas 3% (v/v) and oxygen gas 21% (v/v) was administered to 8 patients with Alzheimer's disease for 1 hour 2× per day. Inhalation was continued for a period of 6 months, after which hydrogen gas inhalation was discontinued and progress monitored.
(§3) Treatment efficacy was assessed by clinical assessment using ADAS-cog and neural quality (integrity) was assessed by MRI using DTI.
Statistical significance was assessed by Student's t-test, * indicates outputs for p¿ 0.05, ** for p¿ 0.01, indicating significant statistical significance.

[4] = system: patients with Alzheimer's disease; conditions: for DTI area at FA value of 0.2 (neural quality): FIG. 3; for normalised DTI value FA=0.2/FA=0.1, statistical analysis: Student's t-test
Experimental: (§4) For explanation, we note that MRIs of the brain were performed • at the radiology department of Nishijima Hospital and the results were sent to the doctors via an electronic charting system. Digital tractographic imaging was performed using Neuro3D and GRAPPA technology, with five starting points set at locations where nerve bundles passed through the entire hippocampus. DTI was obtained at fractional anisotropy (FA) values of 0.1 and 0.2. The size of the pathway (tract) was calculated from the number of pixels in the pathway (tract) display, the number of pixels was calculated using Image J software. DTI at a fractional anisotropy (FA) value of 0.1 reflects visualization of the neuron as a whole, DTI reflects at a fractional anisotropy (FA) value of 0.2 • to the neural quality of the height visualisation.
For example, the progression of nerve fibers in the hippocampal region of the temporal lobe of the subject's brain can be monitored using diffusion tensor imaging [DTI] and the area of nerve fibers monitored can be analyzed using the process procedures described below. • i) the process of generating a diffusion tensor imaging [DTI] image extracted from the course of nerve fibers in the hippocampal region of the temporal lobe of the subject's brain; • ii) the process of setting five control inputs at regular intervals so that the nerve fiber pathways extracted by process (i) pass through them; • iii) a process in which the fractional anisotropy (FA) is set to 0.2 and an image of the extracted nerve fibers in the hippocampus region is obtained; • iv) a process in which the area of the nerve fiber path is calculated from the number of pixels in the image obtained during the process iii); • v) the process of detecting the manifestations of dementia or predementia based on the measured values of the area of nerve fiber pathways.
In the method described above, the hippocampal region refers to the hippocampal region and the parahippocampal gyrus region; the extracted images of nerve fibers in the hippocampal region are from the lateral and axial views.
When the fractional anisotropy (FA) value is set to 0.1, the extracted image of nerve fibers in the hippocampus region is obtained, and in the process of calculating the area of nerve fiber pathways from the number of pixels in a given image, the area of nerve pathways at FA 0.2 is divided by the area of nerve pathways at FA 0.1 to calculate the FA ratio (normalization).
as §2, §3
For a more accurate quantitative analysis, normalization was performed for each measurement. Data variability was corrected by dividing the F=0.2 value by the simultaneous F=0.1 value. The number of pixels in the corresponding neuronal bundle pathway at FA=0.2 was normalized (divided) by the number of pixels at FA=0.1, and the mean and standard error were obtained from the normalized values from 4 lateral and axial images from the right and left hemispheres of each patient. Statistical significance was assessed by Student's t-test, * indicates outputs for p¿ 0.05, ** for p¿ 0.01, indicating significant statistical significance of the results.

[5] = system: patient with a severe form of Alzheimer's disease; conditions: one patient
Experimental: as §4, §1
The neural quality was assessed using advanced magnetic resonance imaging technology using the diffusion tensor imaging procedure.

[6] = Phase I clinical trials; cited from earlier work

SMILES: [HH] [hydrogen gas, Molecular hydrogen]
- condition of subjects with mild cognitive impairment [1]: improved the condition
- ability to urinate and defecate (incontinence of stool and urine) ([2]; ADAS-cog 48/70, 3% (v/v) hydrogen + 21% (v/v) oxygen 2x daily for one hour, after two years of inhalation): able to urinate and defecate on their own
- fecal incontinence, frequency or severity of difficulties ([2]; January 2020, inhalation started Apr. 19, 2019): no improvement in the frequency or severity of difficulties
- independent defecation ([2]; since Nov. 18, 2020, inhalation started Apr. 19, 2019): able to go and defecate on their own in almost all cases
- changes in ADAS-cog scores versus control group not inhaling hydrogen gas ([3]; 6 months after cessation of inhalation, control 19 patients from past data): improvement persisted
- average change in clinical symptoms assessed by ADAS-cog (cognitive function) ([3]; 8 patients, hydrogen gas 3% (v/v) + oxygen 21% (v/v), 1 hour 2x per day, continuous inhalation for 6 months, FIG. 1): an initial deterioration, but soon showed an improvement in cognitive function
- average change in clinical symptoms assessed by ADAS-cog (cognitive impairment) ([3]; 8 patients, six months or one year after cessation of 6-month inhalation, compared to before treatment, FIG. 1): marked improvement in cognitive impairment
- statistical significance of effect on ADAS-cog versus control and on normalised DTI ([3]; after hydrogen gas inhalation, FIGS. 2 and 4): statistically significant effect
- changes in ADAS-cog scores versus control group not inhaling hydrogen gas ([3]; one year after cessation of treatment, compared to pre-treatment status): the improvement persisted compared to the pre-treatment status
- normalised DTI value FA=0.2/FA=0.1 ([4]; 1 year after end of treatment, compared with pre-treatment condition, FIG. 4): beneficial effect, compared with the pre-treatment condition, persisting
- DTI area at FA value of 0.2 (neural quality) ([4]; 6 months after cessation of hydrogen gas inhalation): persisted
- normalised DTI value FA=0.2/FA=0.1, statistical analysis ([4]; 6 months after the end of treatment, FIG. 4): significant effect persisting
- DTI area at FA value of 0.2 (neural quality) ([4]; after 6 months of continuous hydrogen gas inhalation, 9 patients as printed): neural quality was improved
- normalised DTI value FA=0.2/FA=0.1, statistical analysis ([4]; after 6 months of inhalation, FIG. 4): significant effect
- DTI area at FA value of 0.2 (neural quality) ([4]; one year after the end of inhalation, compared with start of inhalation): able to maintain a favorable result compared with the condition at the start of inhalation
- DTI display at FA=0.2 (qualitative neural quality) ([5]; FIG. 5D): new nerves have appeared
- area of nerve fibers visualized in the DTI at FA=0.2 ([5]; after 2 years of inhalation, FIG. 5): increased
- changes in DTI over time (effect of inhalation) ([5]; after 6 months of hydrogen gas inhalation, FIG. 5): the effect did not appear
- number of pixels (DTI area) at F=0.1 and F=0.2 ([5]; after two years of inhalation (29 to 53 months), FIG. 6): slight increase in the number of pixels
- safety of hydrogen gas inhalation [6]: safety of hydrogen gas inhalation has been confirmed
